Structures can show the parent of a compound that is named as a salt.
Assays:
[1] = system: excretion of phenol red from the mouse trachea; test: Excretion amount of phenol red from the mouse trachea (expectorant effects); assay type: in vivo, mice; conditions: trachea wash in 2 mL 5% NaHCO3, absorbance at 546 nm, n = 10
Method: 2.3 Effects on the Excretion Amount of Phenol Red from the Mouse Trachea (Expectorant Effects)
40 mice were taken and randomly divided into 4 groups as described in 2.1. The positive control group received ambroxol hydrochloride tablets at 20 mg/kg. After the mice were acclimatized for 3 days, they were administered intragastrically once a day continuously for 7 days. The administration volume was 20 mL/kg, and 30 min after the last administration, each mouse was intraperitoneally injected with 5% phenol red solution at 0.2 mL/20 g, sacrificed after 30 min, fixed supine, neck straightened, surrounding connective tissue stripped to expose the trachea, and dissected to separate out a section of trachea that was from below the thyroid cartilage to the bifurcation of the trachea. Each trachea section was put into a test tube pre-filled with 2 mL of 5% NaHCO3 solution, ultrasonically washed for 15 min to release the tracheal phenol red out from the trachea completely, and centrifuged at 1000 r/min for 15 min to obtain a supernatant. The absorbance values of the supernatant at 546 nm were measured by an enzyme reader, and converted into the phenol red content by being compared with standard curves of phenol red.
(§1) Experimental data were analyzed using SPSS17.0 software, and expressed as means±standard deviations (x±SD). When the homogeneity of variance was complied, LSD test was used to make comparison between groups; and when the homogeneity of variance was not complied, Dunnett's T3 test was used to make comparison between groups. A P-value less than 0.05 means a statistical significance, and a P-value less than 0.01 means a significant statistical significance.

[2] = system: ears swelling of mice induced by xylene; test: Ears swelling of mice induced by xylene (anti-inflammatory effects); assay type: in vivo; conditions: for Swelling degree: xylene 20 μL on right ear, 30 min, weight difference of 6 mm ear pieces
Method: 2.5 Effects on Ears Swelling of Mice Induced by Xylene (Anti-Inflammatory Effects)
40 mice were taken and randomly divided into 4 groups of 10 mice each as described in 2.1, in which intragastric administration was conducted at 10 mL/kg, the positive control group received dexamethasone acetate tablets at 5 mg/kg, and the negative control group received equal volume of 0.5% CMC-Na, once per day continuously for 7 days. At the night before the experiments, the mice were fasted but had access to water for 12 h. At the 7th day, 30 min after the administration, the mice were evenly smeared with the inflammatory agent xylene (20 μL for each mouse) at the front and back sides of right ears to cause inflammation, and killed by cervical dislocation after 30 min, with their both ears cut along the baseline of the auricle. The ear pieces of the same part of the both ears were punched out with a hole punch of 6 mm diameter, and weighted by an analytical balance. The difference between the weights of the two ears was the swelling degree (mg), and the swelling inhibition rate (%) was calculated. Swelling inhibition rate=(Average swelling degree of the control group−Average swelling degree of the administration group)/Average swelling degree of the control group 2.6 Statistical Methods:
as §1

[3] = system: cough response of mice induced by concentrated ammonia; test: Cough response of mice induced by concentrated ammonia (antitussive effects); assay type: in vivo; conditions: n = 10; for Number of coughs per 2 min: 25% ammonia spray; for Latency: cough latency, 25% ammonia spray 15 s, 1 h after last dose
Method: 2.1 Effects on the Cough Response of Mice Induced by Concentrated Ammonia (Antitussive Effects)
40 mice were taken and randomly divided into four groups, namely a negative control group (0.5% of CMC-Na: prepared before tests by weighting 5 g of CMC-Na into a beaker, adding 800 mL pure water thereto, stirring, heating, boiling, and cooling down, then using a measuring cylinder to adjust the volume to 1000 mL, to obtain the transparent, viscous liquid with a concentration of 0.5% for the preparation of test samples and solvent control. Such liquid prepared once and can be used for 5-7 days); a positive control group of codeine phosphate tablets at 60 mg/kg; Trezastilbenoside high dose (300 mg/kg) group; and Trezastilbenoside low dose (150 mg/kg) group. For each administration group, 0.5% CMC-Na was used for dissolving and diluting to a corresponding concentration. After the mice were accilimatized for 3 days, they were administered intragastrically once a day continuously for 7 days. The administration volume was 20 mL/kg, and 1 h after the last administration, the mice were placed one by one into a closed and dry container where the mist of 25% of concentrated ammonia was introduced into by spraying at constant pressure for 15 seconds to induce cough, then the cough latency and the number of coughs in mice during the 2-minute period were recorded thought observation.
as §1

[4] = system: cough in guinea pigs induced by citric acid spray; test: Cough in guinea pigs induced by citric acid spray (antitussive effects); assay type: in vivo; conditions: n = 10; for Number of coughs per 5 min: 17.5% citric acid spray; for Latency: cough latency, 17.5% citric acid spray 1 min, latency capped at 5 min
Method: 2.2 Effects on the Cough in Guinea Pigs Induced by Citric Acid Spray (Antitussive Effects)
Healthy and sensitive guinea pigs (a pre-selection was carried out one day before the experiments, to exclude the guinea pigs which coughed less than 10 times during the five-minute period), having body weight of 250-280 g, male and female each in half were taken, and randomly divided into groups as described in 2.1. After the guinea pigs were acclimatized for 3 days, they were administered intragastrically once a day continuously for 5 days, and at the fifth day 1 hour after the administration, the guinea pigs were placed inside a 3 L sealed glass bell jar where 17.5% citric acid was sprayed into at constant pressure for 1 minute by an ultrasonic nebulizer. The cough latency and the number of coughs of the guinea pigs during the 5-minute period were recorded though observation. For guinea pigs whose latency exceeded 5 min, it was recorded as 5 min.
as §1

[5] = system: allergic asthma in guinea pigs; test: Allergic asthma in guinea pigs (egg protein sensitisation and spray); assay type: in vivo; conditions: 1% egg protein spray, capped at 6 min
Method: 2.4 Effects on the Allergic Asthma in Guinea Pigs (Effects for Relieving Asthma)
40 guinea pigs, male and female each in half, having body weight of 250-280 g, were randomly divided into 4 groups as described in 2.1. The positive control group received aminophylline tablets at 100 mg/kg. After the guinea pigs were acclimatized for 3 days, they received 10% fresh egg protein solution at 10 mL/kg through an intraperitoneal injection. From the 15th day, it began to administer intragastrically to each group at 10 mL/kg. The negative control group received equal volume of 0.5% CMC-Na once per day continuously for 7 days. From the 17th day, it began to let the guinea pigs inhale 1% egg protein solution, by spraying through an asthma-inducing, for 15 min to elicit at 1-day intervals totally for 3 times. After the last irritation, the asthma latency in the guinea pigs, that is, the time from the beginning of spray to asthma attacks (cough, dyspnea, restlessness, convulsions, falling down or death), was recorded. For the guinea pigs which had not appeared asthma attack after 6 min, their latency was taken as 6 min.
as §1

[6] = safety researches, background statement; cited from earlier work
[7] = safety researches, background statement; cited from earlier work; remark: listed apart in the source
[8] = 150 mg/kg intragastric once a day for 7 days
[9] = 300 mg/kg intragastric once a day for 7 days
[10] = 150 mg/kg intragastric once a day for 5 days
[11] = 300 mg/kg intragastric once a day for 5 days
[12] = 150 mg/kg intragastric once per day for 7 days
[13] = 300 mg/kg intragastric once per day for 7 days
[14] = 60 mg/kg intragastric once a day for 7 days
[15] = 60 mg/kg intragastric once a day for 5 days

Nc1c(Br)cc(Br)cc1CN[C@H]1CC[C@H](O)CC1 [Ambroxol hydrochloride tablet, Ambroxol hydrochloride, reference compound]
Phenol red concentration ([1]; ambroxol hydrochloride 20 mg/kg (positive control) intragastric once a day for 7 days): 4.23 ± 1.34 µg/mL

CC(=O)OCC(=O)[C@@]1(O)[C@H](C)C[C@H]2[C@@H]3CCC4=CC(=O)C=C[C@]4(C)[C@@]3(F)[C@@H](O)C[C@@]21C [Dexamethasone acetate tablet, Dexamethasone acetate, reference compound]
Swelling degree ([2]; 5 mg/kg intragastric once per day for 7 days): 1.24 ± 0.67 mg
inhibition at 5 mg/kg ([2]; Mus musculus, po, 168 h, 5 mg/kg intragastric once per day for 7 days, relative to average swelling degree of control group, read-out: Swelling inhibition rate (%)): 65.9%

OC[C@H]1O[C@@H](Oc2cc(/C=C/c3cc(O)cc(O)c3)ccc2O)[C@H](O)[C@@H](O)[C@@H]1O [Trezastilbenoside]
Number of coughs per 2 min [3, 8]: 25.88 ± 9.25
Number of coughs per 2 min [3, 9]: 19.63 ± 10.27
Latency [3, 8]: 41.23 ± 13.67 s
Latency [3, 9]: 48.56 ± 16.53 s
Number of coughs per 5 min [4, 10]: 13.88 ± 5.25
Number of coughs per 5 min [4, 11]: 9.63 ± 3.20
Latency [4, 10]: 104.35 ± 45.23 s
Latency [4, 11]: 116.78 ± 53.96 s
Phenol red concentration [1, 8]: 3.28 ± 1.20 µg/mL
Phenol red concentration [1, 9]: 3.88 ± 1.43 µg/mL
Latency [5, 12]: 69.28 ± 21.20 s
Latency [5, 13]: 83.68 ± 36.13 s
Swelling degree [2, 12]: 3.12 ± 2.52 mg
Swelling degree [2, 13]: 2.21 ± 1.45 mg
inhibition at 150 mg/kg ([2]; Mus musculus, po, 168 h, 150 mg/kg intragastric once per day for 7 days, relative to average swelling degree of control group, read-out: Swelling inhibition rate (%)): 14.3%
inhibition at 300 mg/kg ([2]; Mus musculus, po, 168 h, 300 mg/kg intragastric once per day for 7 days, relative to average swelling degree of control group, read-out: Swelling inhibition rate (%)): 39.3%
Toxic side reactions and death in acute toxicity tests [6]: no toxic side reactions and death occurred
Chromosome aberrations or mutagenesis in the genetic test [7]: no chromosome aberrations or mutagenesis were found

COc1ccc2c3c1O[C@H]1[C@@H](O)C=C[C@H]4[C@@H](C2)N(C)CC[C@@]341 [Codeine phosphate tablets, Codeine phosphate, reference compound]
Number of coughs per 2 min [3, 14]: 15.13 ± 7.83
Latency [3, 14]: 56.23 ± 16.46 s
Number of coughs per 5 min [4, 15]: 7.83 ± 3.83
Latency [4, 15]: 130.48 ± 59.34 s

Cn1c(=O)c2[nH]cnc2n(C)c1=O [Aminophylline tablet, Aminophylline, reference compound]
Latency ([5]; 100 mg/kg intragastric once per day for 7 days): 94.23 ± 31.55 s
